Measured values: ChEMBL document CHEMBL2163329, “Tuberculosis: the drug development pipeline at a glance” (Eur J Med Chem, 2012)
In brackets after ≈: the same amount, converted by molar mass.

Tests used:
[1] = system: Mycobacterium tuberculosis; experiment: Antimycobacterial activity against Mycobacterium tuberculosis infected in mouse assessed as log reduction of CFU in lung at 100 mg/kg; assay type: functional
[2] = AUC (0 to 24 hrs) in monkey at 5 mg/kg; assay type: ADME, organism-based, Macaca mulatta; parameters: time < 24 hr, dose 5 mg/kg; conditions: rhesus monkey, plasma
[3] = Cmax in monkey at 5 mg/kg; assay type: ADME, organism-based, Macaca mulatta; parameters: dose 5 mg/kg; conditions: rhesus monkey, in vivo
[4] = Cmax in mouse serum at 100 mg/kg; assay type: ADME, organism-based; parameters: dose 100 mg/kg
[5] = Half life in mouse lung at 100 mg/kg; assay type: ADME, organism-based; parameters: dose 100 mg/kg
[6] = AUC (0 to infinity) in mouse serum at 100 mg/kg; assay type: ADME, organism-based; parameters: time infinity, dose 100 mg/kg
[7] = Half life in mouse serum at 100 mg/kg; assay type: ADME, organism-based; parameters: dose 100 mg/kg
[8] = system: Mycobacterium tuberculosis; experiment: Ratio of gatifloxacin MIC to compound MIC for Mycobacterium tuberculosis; assay type: functional
[9] = system: Mycobacterium tuberculosis; experiment: Ratio of moxifloxacin MIC to compound MIC for Mycobacterium tuberculosis; assay type: functional
[10] = system: Mycobacterium tuberculosis; experiment: Ratio of levofloxacin MIC to compound MIC for Mycobacterium tuberculosis; assay type: functional
[11] = system: Mycobacterium tuberculosis; experiment: Antimycobacterial activity against drug-sensitive Mycobacterium tuberculosis; assay type: functional
[12] = AUC in mouse at 100 mg/kg; assay type: ADME, organism-based; parameters: dose 100 mg/kg; conditions: plasma
[13] = system: Mycolicibacterium smegmatis; experiment: Antimycobacterial activity against Mycobacterium smegmatis; assay type: functional
[14] = system: Mycobacterium tuberculosis; experiment: Antimycobacterial activity against Mycobacterium tuberculosis; assay type: functional
[15] = system: Mycobacterium tuberculosis; experiment: Antimycobacterial activity against Mycobacterium tuberculosis infected in macrophages assessed as bacterial growth inhibition at 4 ug/mL; assay type: functional; conditions: read-out: GI
[16] = system: Mycobacterium tuberculosis; experiment: Antimycobacterial activity against Mycobacterium tuberculosis infected in human assessed as log reduction of bacterial count at 100 to 400 mg, qd for 14 days; assay type: functional
[17] = Tmax in smear positive tuberculosis patient; assay type: ADME, organism-based; conditions: human, in vivo
[18] = AUC in Mycobacterium tuberculosis infected mouse at 2.5 mg/kg; assay type: ADME, organism-based; parameters: dose 2.5 mg/kg; conditions: plasma
[19] = Tmax in Mycobacterium tuberculosis infected mouse at 2.5 mg/kg; assay type: ADME, organism-based; parameters: dose 2.5 mg/kg; conditions: in vivo
[20] = system: Mycobacterium tuberculosis; experiment: Antimycobacterial activity against Mycobacterium tuberculosis infected in human assessed as log reduction of bacterial count at 400 mg, qd measured up to 7 days; assay type: functional
[21] = AUC at steady state (0 to 24 hrs) in human at 400 mg, po qd for 14 days; assay type: ADME, organism-based; parameters: dose 400 mg, time < 24 hr, route oral; conditions: plasma
[22] = AUC at steady state (0 to 24 hrs) in human at 50 mg, po qd for 14 days; assay type: ADME, organism-based; parameters: dose 50 mg, time < 24 hr, route oral; conditions: plasma
[23] = AUC at steady state (0 to 24 hrs) in human at 150 mg, po qd for 14 days; assay type: ADME, organism-based; parameters: dose 150 mg, time < 24 hr, route oral; conditions: plasma
[24] = Cmax in human at 10 mg, po; assay type: ADME, organism-based; parameters: dose 10 mg, route oral; conditions: in vivo
[25] = Cmax in human at 400 mg, po; assay type: ADME, organism-based; parameters: dose 400 mg, route oral; conditions: in vivo
[26] = system: Mycobacterium tuberculosis; experiment: Antimycobacterial activity against Mycobacterium tuberculosis clinical isolate; assay type: functional
[27] = system: Mycobacterium tuberculosis; experiment: Antimycobacterial activity against Mycobacterium tuberculosis H37Rv; assay type: functional
[28] = system: Mycobacterium tuberculosis; experiment: Antimycobacterial activity against Mycobacterium tuberculosis H37Rv infected in BALB/c mouse assessed as log reduction of CFU in lung at 300 mg/kg, po administered 6 times per week for 4 weeks; assay type: functional
[29] = system: Mycobacterium tuberculosis; experiment: Antimycobacterial activity against Mycobacterium tuberculosis H37Rv infected in BALB/c mouse assessed as log reduction of CFU in spleen at 300 mg/kg, po administered 6 times per week for 4 weeks; assay type: functional
[30] = AUC in Mycobacterium tuberculosis H37Rv infected BALB/c mouse at 37.5 to 300 mg/kg, po administered 6 times per week for 4 weeks; assay type: ADME, organism-based; parameters: dose 37.5-300 mg/kg, route oral; conditions: plasma
[31] = Cmax in Mycobacterium tuberculosis H37Rv infected BALB/c mouse at 37.5 to 300 mg/kg, po administered 6 times per week for 4 weeks; assay type: ADME, organism-based; parameters: dose 37.5-300 mg/kg, route oral; conditions: in vivo
[32] = system: Mycobacterium tuberculosis; experiment: Antimycobacterial activity against Mycobacterium tuberculosis infected in human assessed as log reduction of bacterial count at 400 mg, qd measured up to 2 days; assay type: functional
[33] = AUC in human at 400 mg, po; assay type: ADME, organism-based; conditions: plasma
[34] = (§1) Tmax in human at 400 mg, po; assay type: ADME, organism-based; conditions: in vivo, 400 mg
[35] = Half life in human at 400 mg, po; assay type: ADME, organism-based; conditions: in vivo
[36] = system: Mycobacterium tuberculosis; experiment: Antimycobacterial activity against Mycobacterium tuberculosis infected in human assessed as log reduction of bacterial count at 300 mg, qd measured up to 2 days; assay type: functional
Homo sapiens = experiment: as §1; assay type: ADME, organism-based; conditions: in vivo
[37] = Bioavailability in human; assay type: ADME, organism-based; conditions: in vivo
[38] = Bioavailability in human at 1200 mg; assay type: ADME, organism-based; conditions: in vivo
[39] = Bioavailability in human at 50 mg; assay type: ADME, organism-based; conditions: in vivo
[40] = system: Mycobacterium tuberculosis; experiment: Antimycobacterial activity against Mycobacterium tuberculosis infected in human assessed as log reduction of bacterial count at 200 to 1200 mg; assay type: functional
[41] = Cmax in human at 50 to 1500 mg, po; assay type: ADME, organism-based; conditions: in vivo
[42] = AUC in human at 50 to 1500 mg, po; assay type: ADME, organism-based; conditions: plasma
[43] = Tmax in human at 50 to 1500 mg, po; assay type: ADME, organism-based; conditions: in vivo
[44] = system: Mycobacterium tuberculosis; experiment: Antimycobacterial activity against Mycobacterium tuberculosis infected in mouse administered as qd; assay type: functional
[45] = Half life in human up to 300 mg, po; assay type: ADME, organism-based; conditions: in vivo
[46] = Oral bioavailability in mouse at 10 mg/kg; assay type: ADME, organism-based; conditions: in vivo
[47] = system: Mycobacterium tuberculosis; experiment: Antimycobacterial activity against Mycobacterium tuberculosis infected in mouse assessed as log reduction of CFU in spleen at 10 to 25 mg/kg after 30 days; assay type: functional; conditions: dose mg/kg 10-25
[48] = system: Mycobacterium tuberculosis; experiment: Antimycobacterial activity against Mycobacterium tuberculosis infected in mouse assessed as log reduction of CFU in lung at 10 to 25 mg/kg after 30 days; assay type: functional; conditions: dose mg/kg 10-25

## COc1c(N2CC3(CC3)[C@](C)(N)C2)c(F)cc2c(=O)c(C(=O)O)cn([C@@H]3C[C@@H]3F)c12
[1]
  log10cfu: 2
[2]
  AUC(0-t) at 24 h: 16900 ng·h/mL
[3]
  Cmax: 2200 ng/mL
[4]
  Cmax: 10300 ng/mL
[5]
  half-life: 1.93 h
[6]
  AUC(0-inf): 14700 ng·h/mL
[7]
  half-life: 1.51 h
[8]
  Ratio: 4
[9]
  Ratio: 4
[10]
  Ratio: 4
[11]
  MIC90: 0.06 µg/mL (≈ 0.143 µM)

## N#CCC(=O)N1CCC(c2nc(-c3cccs3)no2)CC1
[12]
  AUC: 82000 ng·h/mL

## C[C@@H]1COC2(CCN(c3nc(=O)c4cc(C(F)(F)F)cc([N+](=O)[O-])c4s3)CC2)O1
[13]
  MIC: 0.004 µg/mL (≈ 0.00927 µM)
[14]
  MIC: 0.001 µg/mL (≈ 0.00232 µM)

## OC1CCN(C2CCN(CC34CC5CC(CC(C5)C3)C4)CC2)CC1
[15]
  inhibition of growth at 4 µg/mL: 90%

## C[C@]1(COc2ccc(N3CCC(Oc4ccc(OC(F)(F)F)cc4)CC3)cc2)Cn2cc([N+](=O)[O-])nc2O1
[16]
  log10CFU/ml/day: 0.04
[17]
  Tmax: 4 h
[18]
  AUC: 4130 ng·h/mL
[19]
  Tmax: 6 h
[11]
  MIC: 0.006 µg/mL

## CC(=O)NC[C@H]1CN(c2ccc([S+](C)[O-])cc2)C(=O)O1 (stereo not given in full)
[14]
  MIC: 0.3 µg/mL (≈ 1.01 µM)

## COc1nc2ccc(Br)cc2cc1[C@@H](c1ccccc1)[C@@](O)(CCN(C)C)c1cccc2ccccc12 [BEDAQUILINE]
[20]
  log10CFU/ml: 0.77
[21]
  AUC at 24 h: 52000 ng·h/mL
[22]
  AUC at 24 h: 7900 ng·h/mL
[23]
  AUC at 24 h: 24000 ng·h/mL
[24]
  Cmax: 70 ng/mL
[11]
  MIC: 0.003 µg/mL
[25]
  Cmax: 9000 ng/mL
[26]
  MIC: 0.03 µg/mL (≈ 0.054 µM)
[27]
  MIC99: 0.03 µg/mL (≈ 0.054 µM)

## C[C@H]1COC2(CCN(c3nc(=O)c4cc(C(F)(F)F)cc([N+](=O)[O-])c4s3)CC2)O1 [BTZ-043]
[28]
  log10cfu: 1
[29]
  log10cfu: 2
[30]
  AUC at 672 h: 4600 ng·h/mL
[31]
  Cmax: 2000 ng/mL
[13]
  MIC: 0.004 µg/mL (≈ 0.00927 µM)
[14]
  MIC: 0.001 µg/mL (≈ 0.00232 µM)

## CC(=O)NC[C@H]1CN(c2ccc(C(C)=O)cc2)C(=O)O1 [DUP-721]
[14]
  MIC: 0.3 µg/mL (≈ 1.09 µM)

## COc1c(N2CCNC(C)C2)c(F)cc2c(=O)c(C(=O)O)cn(C3CC3)c12 (stereo not given) [GATIFLOXACIN]
[32]
  log10CFU/ml/day: 0.35
[33]
  AUC: 30000 ng·h/mL
[34]
  Tmax: 1.5 h
[35]
  half-life: 6.5 h
[25]
  Cmax: 3400 ng/mL
[26]
  MIC90: 0.007 µg/mL (≈ 0.0186 µM)
[27]
  MIC: 0.12 µg/mL (≈ 0.32 µM)

## NNC(=O)c1ccncc1 [ISONIAZID]
[20]
  log10CFU/ml: 1.88
[36]
  log10CFU/ml/day: 0.67

## CC(=O)NC[C@H]1CN(c2ccc(N3CCOCC3)c(F)c2)C(=O)O1 [LINEZOLID]
[14]
  MIC: 0.125 µg/mL (≈ 0.371 µM)

## COc1c(N2C[C@@H]3CCCN[C@@H]3C2)c(F)cc2c(=O)c(C(=O)O)cn(C3CC3)c12 [MOXIFLOXACIN]
[32]
  log10CFU/ml/day: 0.33
[33]
  AUC: 39000 ng·h/mL
Homo sapiens
  Tmax: 1 h
[37]
  bioavailability: 90%
[25]
  Cmax: 4300 ng/mL
[27]
  MIC: 0.18 µg/mL (≈ 0.448 µM)

## O=C([C@@H](O)CO)N1CC=C(c2c(F)cc(N3C[C@H](COc4ccon4)OC3=O)cc2F)CC1 [POSIZOLID]
[38]
  bioavailability: < 30%
[39]
  bioavailability: 100%

## O=[N+]([O-])c1cn2c(n1)OC[C@@H](OCc1ccc(OC(F)(F)F)cc1)C2 [PRETOMANID]
[40]
  log10CFU/ml/day: 0.1
[41]
  Cmax: 300 ng/mL
[42]
  AUC: 7500 ng·h/mL
[43]
  Tmax: 4 h
[44]
  MBC: 100 mg/kg
[44]; Mycobacterium tuberculosis, read-out: MED
  minimal effective dose: 12.5 mg/kg
[11]
  MIC: 0.06 µg/mL
[27]
  MIC: 0.039 µg/mL (≈ 0.109 µM)

## CO[C@H]1/C=C/O[C@@]2(C)Oc3c(C)c(O)c4c(O)c(c(/C=N/N5CCN(C)CC5)c(O)c4c3C2=O)NC(=O)/C(C)=C\C=C\[C@H](C)[C@H](O)[C@@H](C)[C@@H](O)[C@@H](C)[C@H](OC(C)=O)[C@@H]1C [RIFAMPIN]
[20]
  log10CFU/ml: 1.7

## CC(C)=CCC/C(C)=C/CNCCNC1C2CC3CC(C2)CC1C3 (stereo not given) [SQ109]
[45]
  half-life: 61 h
[46]
  bioavailability: 8%
[47]
  log10cfu: 1.5
[48]
  log10cfu: 1.5
[11]
  MIC: 0.63 µM

## CC(=O)NC[C@H]1CN(c2ccc(N3CCSCC3)c(F)c2)C(=O)O1 [SUTEZOLID]
[11]
  MIC: 0.03 µg/mL
